From patent publication US9625446B2, “Method and quantification assay for determining c-kit/SCF/pAKT status” (Ventana Medical Systems, Inc., priority 2001, dated 2017)

Biological target: c-kit receptor (Homo sapiens, UniProt P10721)
Conditions: MDA-MB-361 cells, SCF ligand present, three-day culture, STI-571 1 μM to 40 μM, 50 μg total protein lysate, FIG. 4

c-kit receptor, sequence (P10721 26-976): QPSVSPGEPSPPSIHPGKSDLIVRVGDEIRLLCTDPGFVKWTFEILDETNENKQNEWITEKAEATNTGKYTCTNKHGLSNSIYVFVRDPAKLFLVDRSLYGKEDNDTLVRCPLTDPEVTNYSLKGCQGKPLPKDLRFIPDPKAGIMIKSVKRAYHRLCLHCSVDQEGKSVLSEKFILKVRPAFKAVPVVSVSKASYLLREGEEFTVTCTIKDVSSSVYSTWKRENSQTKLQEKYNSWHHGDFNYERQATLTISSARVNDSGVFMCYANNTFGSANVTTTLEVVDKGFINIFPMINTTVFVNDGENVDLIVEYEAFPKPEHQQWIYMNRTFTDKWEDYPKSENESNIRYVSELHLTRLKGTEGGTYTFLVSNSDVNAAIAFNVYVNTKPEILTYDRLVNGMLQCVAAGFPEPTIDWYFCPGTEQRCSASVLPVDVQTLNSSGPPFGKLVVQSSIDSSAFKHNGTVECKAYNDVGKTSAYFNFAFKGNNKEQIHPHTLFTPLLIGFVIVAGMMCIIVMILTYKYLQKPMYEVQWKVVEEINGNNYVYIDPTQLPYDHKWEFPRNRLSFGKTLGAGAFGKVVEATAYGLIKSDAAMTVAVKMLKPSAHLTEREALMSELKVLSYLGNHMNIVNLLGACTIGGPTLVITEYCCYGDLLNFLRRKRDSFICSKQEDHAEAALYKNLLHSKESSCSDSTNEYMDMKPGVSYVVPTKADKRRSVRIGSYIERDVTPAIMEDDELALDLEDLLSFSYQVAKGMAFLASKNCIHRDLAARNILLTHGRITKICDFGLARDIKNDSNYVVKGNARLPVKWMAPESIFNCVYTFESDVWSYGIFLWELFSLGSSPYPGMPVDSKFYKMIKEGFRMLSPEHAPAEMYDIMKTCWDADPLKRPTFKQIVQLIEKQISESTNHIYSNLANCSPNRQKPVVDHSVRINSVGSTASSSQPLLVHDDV

## Cc1ccc(NC(=O)c2ccc(CN3CCN(C)CC3)cc2)cc1Nc1nccc(-c2cccnc2)n1 [STI-571]
  STI-571 concentration at which SCF-induced c-kit activation is inhibited (no 145 kDa activated c-kit band): ≤ 1 µM
